Experimental data as given in patent US11026946B2, “Pharmacologically active alicyclic-substituted pyrazolo[1,5-a]pyrimidine derivatives” (RICHTER GEDEON NYRT., priority 2017, dated 2021).

Tests used:
[1] = target: T1, GABAB receptor (Rattus norvegicus, UniProt O88871+Q9Z0U4); experiment: In vitro [35S]GTPγS binding assay in rat cortical membranes; type: biochemical; settings: PAM EC50, [35S]GTPγS binding, read-out: In vitro PAM potency
T1 construct: from tissue; host or cells: rat brain cortex membranes
Procedure: In Vitro [^35S]GTPγS Binding Assay in Rat Cortical Membranes
Cortices of freshly harvested rat brains were dissected on an ice-cold surface and homogenized by a glass Dounce homogeniser immediately in ice-cold buffer containing 50 mM Tris, 5 mM MgCl2 and 1 mM EDTA (pH=7.6). Tissue homogenates were centrifuged at 40000 g for 15 min at 4° C. Membrane pellets were resuspended in the same buffer and membranes were incubated for 10 min at 30° C. in a shaking water bath to eliminate endogenous GABA. Homogenates were centrifuged again under the same conditions. The final pellets were resuspended in ice-cold buffer (pH=7.6) containing 50 mM Tris, 100 mM NaCl, 7 mM MgCl2, 1 mM EDTA and 1 mM dithiotreithol (DTT) to yield a concentration of 20 mg tissue weight/ml and frozen at −70° C. until use. The assay was done in a buffer containing 50 mM Tris (pH=7.4), 100 mM NaCl, 7 mM MgCl2, 1 mM EDTA and 1 mM DTT. Each assay tube contained 150 μL GDP (in a final concentration of 50 μM), 100 μL ligand and 125 μL of the membrane suspension (250 μg tissue/tube). The assay tubes were preincubated for 10 min at 30° C. to assure equilibrium. Nonspecific binding was determined in the presence of 10 μM GTPγS: basal binding was determined in the presence of buffer only. After addition of 50 pM [^35S]GTPγS in a volume of 25 μL to the tubes, membranes were incubated for an additional 60 min at 30° C. The assay was terminated by rapid filtration through Packard UniFilter GF/B using a Packard harvester and washed four times with 1 ml ice-cold buffer. After drying the filters at 40° C. for 1 h, 40 μL Microscint (Packard) was added to the filters and radioactivity of the filters was determined by a TopCount NXT (PerkinElmer, Waltham, Mass.: Alper and Nelson, Eur. J. Pharmacol. 1998, 343, 303-312; Rinken et al, Biochem. Pharmacol. 1999, 57, 155-162). Data thus gathered were used to determine PAM EC50 values for each compound as primary in vitro activity end point.

[2] = Plasma and brain levels after the USV assay; type: in vivo, rat; settings: 1 mg/kg per os, approximately 75 min after treatment; for brain exposure at 1 mg/kg: rat brain; for plasma exposure at 1 mg/kg: rat plasma
Procedure: (§1) Under stressful conditions, adult rats emit 22 kHz ultrasounds that can be reduced by various pharmacological treatments (De Vry et al, Eur. J. Pharmacol. 1993, 249, 331-339; Sanchez, Eur. J. Pharmacol. 2003, 463, 133-143). […] Therefore, a foot shock-induced vocalization paradigm in adult rats was used to assess efficacy of centrally acting GABAB receptor ligands. Behavioral measurements were carried out on male Wistar rats (200-250 g, Toxicoop, Hungary). Rats were housed in groups of four in plastic cages with a wire grid top in a temperature and light-controlled laboratory animal care unit (22±2° C., 12-h light/dark cycle, lights on at 6:00 AM) with ad libitum access to commercial pellet rat food and tap water. Investigations were approved by the Local Ethical Committee of Gedeon Richter Plc. and were carried out in strict compliance with the European Directive 2010/63/EU regarding the care and use of laboratory animals for experimental procedures and all efforts were made to minimize the number of animals as well as their suffering. In order to evoke emission of ultrasounds, animals were footshocked after a habituation period of 30 s (6 shocks, 1 s, 0.8 mA each, inter-shock interval 10 s) in a sound attenuated shocking chamber (Experimetria, 40×40×80 cm). Investigational compounds were administered at the dose of 1 mg/kg in a solid dispersion formulation in distilled water 1 h before shocking per os. Vocalizations were measured right after the last footshock for 10 min with a Metris Sonotrack system and the total time of vocalizations was registered. Vocalization of parallel vehicle treated animals was considered as control value and inhibition percent was calculated for each compound. At approximately 75 min after treatment and behavioral measurements, blood and brain samples were harvested in order to determine exposures associated with in vivo activity.
In Table 2 compounds of this invention measured in the USV assay are listed. In Table 3 plasma and brain levels of compounds of this invention are listed.

[3] = tested on: adult rats; experiment: Foot shock-induced ultrasonic vocalization (USV) in adult rats; type: in vivo, rat; settings: 1 mg/kg per os, 1 h before shocking, male Wistar rats, versus vehicle
Procedure: Foot Shock-Induced Ultrasonic Vocalization (USV) in Adult Rats
as §1

T1 sequence (O88871 41-940): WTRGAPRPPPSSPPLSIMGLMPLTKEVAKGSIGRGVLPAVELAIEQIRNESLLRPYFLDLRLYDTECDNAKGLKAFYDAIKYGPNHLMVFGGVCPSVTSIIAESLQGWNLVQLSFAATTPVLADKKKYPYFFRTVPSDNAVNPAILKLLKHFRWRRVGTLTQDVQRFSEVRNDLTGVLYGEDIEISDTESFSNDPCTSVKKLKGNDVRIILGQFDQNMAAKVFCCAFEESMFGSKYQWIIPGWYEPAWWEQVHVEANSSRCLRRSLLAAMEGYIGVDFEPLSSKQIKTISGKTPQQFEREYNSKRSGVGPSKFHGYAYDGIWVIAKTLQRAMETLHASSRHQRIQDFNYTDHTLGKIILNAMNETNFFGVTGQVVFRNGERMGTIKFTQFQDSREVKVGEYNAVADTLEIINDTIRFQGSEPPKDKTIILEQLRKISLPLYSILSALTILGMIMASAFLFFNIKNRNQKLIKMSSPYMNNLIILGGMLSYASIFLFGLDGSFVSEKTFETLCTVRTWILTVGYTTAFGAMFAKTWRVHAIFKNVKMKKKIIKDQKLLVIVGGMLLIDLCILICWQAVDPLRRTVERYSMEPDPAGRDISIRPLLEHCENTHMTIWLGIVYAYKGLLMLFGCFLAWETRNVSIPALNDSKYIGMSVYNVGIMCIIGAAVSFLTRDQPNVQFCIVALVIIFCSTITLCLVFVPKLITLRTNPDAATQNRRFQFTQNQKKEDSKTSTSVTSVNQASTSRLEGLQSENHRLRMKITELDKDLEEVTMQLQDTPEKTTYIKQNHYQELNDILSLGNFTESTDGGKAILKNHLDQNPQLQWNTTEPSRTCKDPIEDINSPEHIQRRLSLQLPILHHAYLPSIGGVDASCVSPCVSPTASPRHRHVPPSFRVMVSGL
T1 sequence (Q9Z0U4 17-960 limits assumed): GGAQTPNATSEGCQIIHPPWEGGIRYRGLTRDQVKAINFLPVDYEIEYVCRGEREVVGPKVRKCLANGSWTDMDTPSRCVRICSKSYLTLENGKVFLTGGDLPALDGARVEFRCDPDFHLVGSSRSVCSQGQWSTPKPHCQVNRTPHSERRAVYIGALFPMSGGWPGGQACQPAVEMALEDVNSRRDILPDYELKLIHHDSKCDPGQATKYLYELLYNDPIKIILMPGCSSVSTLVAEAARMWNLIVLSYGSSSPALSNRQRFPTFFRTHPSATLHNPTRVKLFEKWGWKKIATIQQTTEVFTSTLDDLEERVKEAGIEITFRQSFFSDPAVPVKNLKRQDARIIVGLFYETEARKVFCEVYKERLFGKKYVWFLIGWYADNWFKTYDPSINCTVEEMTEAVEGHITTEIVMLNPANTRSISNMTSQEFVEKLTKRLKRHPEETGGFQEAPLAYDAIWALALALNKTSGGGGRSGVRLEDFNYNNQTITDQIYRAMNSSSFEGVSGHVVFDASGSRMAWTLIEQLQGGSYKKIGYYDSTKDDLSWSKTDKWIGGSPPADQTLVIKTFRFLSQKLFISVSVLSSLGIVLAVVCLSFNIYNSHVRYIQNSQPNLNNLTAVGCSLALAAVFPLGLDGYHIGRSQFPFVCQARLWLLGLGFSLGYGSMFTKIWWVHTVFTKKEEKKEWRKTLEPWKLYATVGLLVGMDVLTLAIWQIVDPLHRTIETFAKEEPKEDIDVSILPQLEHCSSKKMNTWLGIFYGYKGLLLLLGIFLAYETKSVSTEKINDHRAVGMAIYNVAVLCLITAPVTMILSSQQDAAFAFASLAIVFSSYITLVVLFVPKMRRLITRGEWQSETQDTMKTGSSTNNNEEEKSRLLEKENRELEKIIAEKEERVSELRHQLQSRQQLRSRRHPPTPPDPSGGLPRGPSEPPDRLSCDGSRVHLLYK

SMILES | EC50 [1] | brain exposure at 1 mg/kg [2] | plasma exposure at 1 mg/kg [2] | USV inhibition at 1 mg/kg (%) [3]
CCCC1(C(=O)O)CCCN(c2c(C(C)C)c(C)nc3cc([C@H]4CC[C@H](C(F)(F)F)CC4)nn23)C1 (single isomer, unassigned) [Example 4] | 1 to 10 nM |  |  | 
CCCC1(C(=O)O)CCCN(c2c(C(C)C)c(C)nc3cc([C@H]4CC[C@H](C(F)(F)F)CC4)nn23)C1 (single isomer, unassigned) [Example 5] | 1 to 10 nM |  |  | 
Cc1nc2cc([C@H]3CC[C@H](C(F)(F)F)CC3)nn2c(N2CCCC(CF)(C(=O)O)C2)c1C(C)C (single isomer, unassigned) [Example 6] | 1 to 10 nM |  |  | 
Cc1nc2cc([C@H]3CC[C@H](C(F)(F)F)CC3)nn2c(N2CCCC(CF)(C(=O)O)C2)c1C(C)C (single isomer, unassigned) [Example 7] | < 1 nM |  |  | 
CC[C@]1(C(=O)O)CCCN(c2c(C(C)C)c(C)nc3cc([C@H]4CC[C@H](C(F)(F)F)CC4)nn23)C1 (single isomer, unassigned) [Example 12] | 1 to 10 nM | 62 ng/g | 121 ng/mL | 59%
CC[C@@]1(C(=O)O)CCCN(c2c(C(C)C)c(C)nc3cc([C@H]4CC[C@H](C(F)(F)F)CC4)nn23)C1 (single isomer, unassigned) [Example 13] | < 1 nM | 31 ng/g | 124 ng/mL | 97%
Cc1nc2c(F)c([C@H]3CC[C@H](C(F)(F)F)CC3)nn2c(N2CCC[C@](C)(C(=O)O)C2)c1C(C)C (single isomer, unassigned) [Example 15] | 1 to 10 nM | 53 ng/g | 170 ng/mL | 89%
Cc1nc2c(F)c([C@H]3CC[C@H](C(F)(F)F)CC3)nn2c(N2CCC[C@@](C)(C(=O)O)C2)c1C(C)C (single isomer, unassigned) [Example 16] | < 1 nM | 36 ng/g | 131 ng/mL | 100%
CC[C@]1(C(=O)O)CCCN(c2c(C(C)C)c(C)nc3c(F)c([C@H]4CC[C@H](C(F)(F)F)CC4)nn23)C1 (single isomer, unassigned) [Example 17] | 1 to 10 nM | 74 ng/g | 135 ng/mL | 79%
CC[C@@]1(C(=O)O)CCCN(c2c(C(C)C)c(C)nc3c(F)c([C@H]4CC[C@H](C(F)(F)F)CC4)nn23)C1 (single isomer, unassigned) [Example 18] | < 1 nM | 30 ng/g | 175 ng/mL | 75%
COc1c(C)nc2cc([C@H]3CC[C@H](C(F)(F)F)CC3)nn2c1N1CCC[C@](C)(C(=O)O)C1 (single isomer, unassigned) [Example 19] | 10 to 100 nM |  |  | 
COc1c(C)nc2cc([C@H]3CC[C@H](C(F)(F)F)CC3)nn2c1N1CCC[C@@](C)(C(=O)O)C1 (single isomer, unassigned) [Example 20] | 100 to 1000 nM |  |  | 
COc1c(C)nc2c(F)c([C@H]3CC[C@H](C(F)(F)F)CC3)nn2c1N1CCC[C@](C)(C(=O)O)C1 (single isomer, unassigned) [Example 23] | 1 to 10 nM |  |  | 
COc1c(C)nc2c(F)c([C@H]3CC[C@H](C(F)(F)F)CC3)nn2c1N1CCC[C@@](C)(C(=O)O)C1 (single isomer, unassigned) [Example 24] | 10 to 100 nM |  |  | 
CC[C@]1(C(=O)O)CCCN(c2c(OC)c(C)nc3c(F)c([C@H]4CC[C@H](C(F)(F)F)CC4)nn23)C1 (single isomer, unassigned) [Example 25] | 10 to 100 nM |  |  | 
CC[C@@]1(C(=O)O)CCCN(c2c(OC)c(C)nc3c(F)c([C@H]4CC[C@H](C(F)(F)F)CC4)nn23)C1 (single isomer, unassigned) [Example 26] | 10 to 100 nM |  |  | 
Cc1nc2cc(C3CCC(F)(F)CC3)nn2c(N2CCC[C@@](C)(C(=O)O)C2)c1C(C)C (single isomer, unassigned) [Example 30] | 1 to 10 nM |  |  | 

SMILES | EC50 [1] | brain exposure at 1 mg/kg [2] | plasma exposure at 1 mg/kg [2] | USV inhibition at 1 mg/kg (%) [3]
CC[C@@]1(C(=O)O)CCCN(c2c(C(C)C)c(C)nc3cc(C4CCC(F)(F)CC4)nn23)C1 (single isomer, unassigned) [Example 32] | 10 to 100 nM |  |  | 
Cc1nc2cc([C@H]3CC[C@H](C(F)(F)F)CC3)nn2c(N2CCC[C@H](C(=O)O)C2)c1C(C)C [Example 1, (3S)-1-[5-Methyl-6-(propan-2-yl)-2-[trans-4-(trifluoromethyl)cyclohexyl]pyrazolo[1,5-a]pyrimidin-7-yl]piperidine-3-carboxylic Acid] | 1 to 10 nM |  |  | 
Cc1nc2cc([C@H]3CC[C@H](C(F)(F)F)CC3)nn2c(N2CCC[C@](C(=O)O)(C(C)C)C2)c1C(C)C [Example 2, (3S)-1-[5-Methyl-6-(propan-2-yl)-2-[trans-4-(trifluoromethyl)cyclohexyl]-pyrazolo[1,5-a]pyrimidin-7-yl]-3-(propan-2-yl)piperidine-3-carboxylic Acid] | 1 to 10 nM | 74 ng/g | 188 ng/mL | 85%
Cc1nc2cc([C@H]3CC[C@H](C(F)(F)F)CC3)nn2c(N2CCC[C@@H](C(=O)O)C2)c1C(C)C [Example 10] | 1 to 10 nM |  |  | 
Cc1nc2cc([C@H]3CC[C@H](C(F)(F)F)CC3)nn2c(N2CCC[C@@](C(=O)O)(C(C)C)C2)c1C(C)C [Example 14] | 1 to 10 nM |  |  | 
CC[C@]1(C(=O)O)CCCN(c2c(OC)c(C)nc3cc([C@H]4CC[C@H](C(F)(F)F)CC4)nn23)C1 [Example 21] | 10 to 100 nM |  |  | 
CC[C@@]1(C(=O)O)CCCN(c2c(OC)c(C)nc3cc([C@H]4CC[C@H](C(F)(F)F)CC4)nn23)C1 [Example 22] | 100 to 1000 nM |  |  | 
CCc1c(C)nc2cc([C@H]3CC[C@H](C(F)(F)F)CC3)nn2c1N1CCC[C@@](C)(C(=O)O)C1 [Example 27] | 1 to 10 nM |  |  | 
CCc1c(C)nc2cc([C@H]3CC[C@H](C(F)(F)F)CC3)nn2c1N1CCC[C@@](CC)(C(=O)O)C1 [Example 28] | 10 to 100 nM |  |  | 
Cc1nc2cc(C3CCC(F)(F)CC3)nn2c(N2CCC[C@](C)(C(=O)O)C2)c1C(C)C [Example 29] | 10 to 100 nM |  |  | 
CC[C@]1(C(=O)O)CCCN(c2c(C(C)C)c(C)nc3cc(C4CCC(F)(F)CC4)nn23)C1 [Example 31] | 10 to 100 nM |  |  | 
CCc1nc2cc([C@H]3CC[C@H](C(F)(F)F)CC3)nn2c(N2CCC[C@@](C)(C(=O)O)C2)c1CC [Example 33] |  | 34 ng/g | 172 ng/mL | 63%
C[C@@]1(C(=O)O)CCCN(c2c3c(nc4cc([C@H]5CC[C@H](C(F)(F)F)CC5)nn24)CCCC3)C1 [Example 34] | 1 to 10 nM |  |  | 
C[C@]1(C(=O)O)CCCN(c2c3c(nc4cc([C@H]5CC[C@H](C(F)(F)F)CC5)nn24)CCOC3)C1 [Example 36] | 100 to 1000 nM |  |  | 
C[C@]1(C(=O)O)CCCN(c2c3c(nc4cc([C@H]5CC[C@H](C(F)(F)F)CC5)nn24)COCC3)C1 [Example 37] | 100 to 1000 nM |  |  | 
Cc1nc2c(F)c(C3CCC(F)(F)CC3)nn2c(N2CCC[C@@](C)(C(=O)O)C2)c1C(C)C [Example 40] | 1 to 10 nM |  |  | 
C[C@@]1(C(=O)O)CCCN(c2c3c(nc4cc([C@H]5CC[C@H](C(F)(F)F)CC5)nn24)COCC3)C1 [Example 42] | 100 to 1000 nM |  |  | 
